Experimental findings from patent EP0539204B1 (priority 1991, dated 1993) are described below.

In brackets after ≈: the same amount, converted by molar mass.

Experiment [1] has as its system influenza A/Singapore/1/57 (H2N2). Nature of the experiment: microbe, parasite or virus in culture. The class given is cell-based. The note with it: for IC50: Influenza A virus, H2N2, MDCK, 72 h, read-out: I50 Plaque Assay Flu A; for I50 Plaque Assay Flu A: reduction of viral plaque formation in MDCK cells, 3 days at 37°C.
The subject of experiment [2] is influenza B/Victoria/102/85. Nature of the experiment: microbe, parasite or virus in culture. The class given is cell-based. The note with it: for IC50: Influenza B virus, MDCK, 72 h, read-out: I50 Plaque Assay Flu B.
Experiment [3] concerns the target N2 influenza neuraminidase (Influenza A virus, UniProt Q91MA2). Description: biochemical. The class given is biochemical, influenza virus (virion X31). The note with it: for NA1: pH 6.5.

N2 influenza neuraminidase, sequence (Q91MA2 whole entry, looked up): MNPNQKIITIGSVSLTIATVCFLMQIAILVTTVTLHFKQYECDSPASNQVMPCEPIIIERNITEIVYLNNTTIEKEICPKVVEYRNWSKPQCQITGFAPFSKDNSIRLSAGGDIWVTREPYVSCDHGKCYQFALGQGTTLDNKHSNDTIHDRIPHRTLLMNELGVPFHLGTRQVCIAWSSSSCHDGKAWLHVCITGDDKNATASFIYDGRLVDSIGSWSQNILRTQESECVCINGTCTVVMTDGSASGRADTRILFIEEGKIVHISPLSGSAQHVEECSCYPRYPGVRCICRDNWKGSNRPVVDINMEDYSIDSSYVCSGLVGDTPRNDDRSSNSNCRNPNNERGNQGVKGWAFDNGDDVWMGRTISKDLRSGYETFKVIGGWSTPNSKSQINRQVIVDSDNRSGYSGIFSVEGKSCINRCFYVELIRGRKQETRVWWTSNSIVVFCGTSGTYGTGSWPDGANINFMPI

Consider `CCOC(=O)NC(=N)N[C@H]1C=C(C(=O)O)O[C@@H]([C@H](O)[C@H](O)CO)[C@@H]1NC(C)=O` [Example 5, 5-(Acetylamino)-4-[[amino(ethoxycarbonylimino)methyl]amino]-2,6-anhydro-3,4,5-trideoxy-D-glycero-D-galacto-non-2-enonic acid], for which the IC50 in experiment [1] is 1.7 µg/mL (≈ 4.2 µM); in experiment [2], 0.6 µg/mL (≈ 1.48 µM); in experiment [3] it was 17.1 µM.
On to “5-(Acetylamino)-4-[[amino(hydroxyimino)methyl]amino]-2,6-anhydro-3,4,5-trideoxy-D-glycero-D-galacto-non-2-enonic acid [Example 2]”, for which the “I50 Plaque Assay Flu A” value in experiment [1] was found to be 0.1 µg/mL. For the same compound, in experiment [2], the “I50 Plaque Assay Flu B” value was less than 0.1 µg/mL. In experiment [3], this compound had an NA1 of 0.6 µg/mL.
For “5-(Acetylamino)-4-[[amino(aminoimino)methyl]amino]-2,6-anhydro-3,4,5-trideoxy-D-glycero-D-galacto-non-2-enonic acid [Example 1]”, in experiment [1], the “I50 Plaque Assay Flu A” value was found to be 2.9 µg/mL. The “I50 Plaque Assay Flu B” value in experiment [2] turned out to be 3.0 µg/mL. Besides, the NA1 in experiment [3] amounted to 1.3 µg/mL.
Turning to `CC(=O)N[C@H]1[C@H]([C@H](O)[C@H](O)CO)OC(C(=O)O)=C[C@@H]1NC(=N)N[N+](=O)[O-]` [Example 4, 5-(Acetylamino)-4-[[amino(nitroimino)methyl]amino]-2,6-anhydro-3,4,5-trideoxy-D-glycero-D-galacto-non-2-enonic acid], the values for the IC50 in experiment [1], in experiment [2] and in experiment [3] were 30 µg/mL (≈ 79.5 µM), 24 µg/mL (≈ 63.6 µM) and 2.65 µM, respectively.
For `CNC(=N)N[C@H]1C=C(C(=O)O)O[C@@H]([C@H](O)[C@H](O)CO)[C@@H]1NC(C)=O` [Example 3, 5-(Acetylamino)-4-[[amino(methylimino)methyl]amino]-2,6-anhydro-3,4,5-trideoxy-D-glycero-D-galacto-non-2-enonic acid], the figures for the IC50 in experiment [1] and in experiment [3] were 3 µg/mL (≈ 8.66 µM) and 12.1 µM, respectively.
